Calls of active or inactive are those of the source. No cut-off for these calls is given here.
How the values were obtained:
MGC-803 [1] = assay: Antiproliferative activity against human MGC-803 cells assessed as inhibition of cell growth at measured after 72 hrs by SRB assay; format: functional
SGC-7901 [2] = assay: Antiproliferative activity against human SGC-7901 cells assessed as inhibition of cell growth at measured after 72 hrs by SRB assay; format: functional
MKN-45 = assay: Antiproliferative activity against human MKN-45 cells assessed as inhibition of cell growth at measured after 72 hrs by SRB assay; format: functional
A549 = assay: Antiproliferative activity against human A549 cells assessed as inhibition of cell growth at measured after 72 hrs by SRB assay; format: functional
MGC-803 [3] = assay: Cell cycle arrest in human MGC-803 cells assessed as accumulation of cells in G2/M phase at 5 uM measured after 24 hrs by PI staining based flow cytometry; format: functional
MGC-803 [4] = assay: Induction of morphological changes in human MGC-803 cells assessed as cell shrinkage at 10 uM incubated for 1 hrs by bright field microscopic analysis; format: functional, cell-based
MGC-803 [5] = assay: Inhibition of cell proliferation in human MGC-803 cells at 5 uM measured by SRB assay; format: functional, cell-based; settings: time 72.0 hrs
SGC-7901 [6] = assay: Inhibition of cell proliferation in human SGC-7901 cells at 5 uM measured after 72 hrs by SRB assay; format: functional, cell-based
SGC-7901 [7] = assay: Inhibition of cell proliferation in human SGC-7901 cells at 10 uM measured after 72 hrs by SRB assay; format: functional, cell-based
MGC-803 [8] = assay: Induction of apoptosis in human MGC-803 cells assessed as early apoptotic cells at 0.625 uM measure after 24 hrs by Annexin-PI staining based Flowcytometry method (reference value: 9.8%); format: functional
MGC-803 [9] = assay: Induction of apoptosis in human MGC-803 cells assessed as necrotic cells at 0.625 uM measure after 24 hrs by Annexin-PI staining based Flowcytometry method (reference value: 3.13%); format: functional
MGC-803 [10] = assay: Induction of apoptosis in human MGC-803 cells assessed as late apoptotic cells at 1.25 uM measure after 24 hrs by Annexin-PI staining based Flowcytometry method (reference value: 7.06%); format: functional
MGC-803 [11] = assay: Induction of apoptosis in human MGC-803 cells assessed as early apoptotic cells at 10 uM measure after 24 hrs by Annexin-PI staining based Flowcytometry method (reference value: 9.8%); format: functional
MGC-803 [12] = assay: Induction of apoptosis in human MGC-803 cells assessed as necrotic cells at 10 uM measure after 24 hrs by Annexin-PI staining based Flowcytometry method (reference value: 3.13%); format: functional
SGC-7901 [13] = assay: Induction of apoptosis in human SGC-7901 cells assessed as viable cells at 0.625 uM measure after 24 hrs by Annexin-PI staining based Flowcytometry method (reference value: 94.9%); format: functional; settings: read-out: Activity
SGC-7901 [14] = assay: Induction of apoptosis in human SGC-7901 cells assessed as late apoptotic cells at 0.625 uM measure after 24 hrs by Annexin-PI staining based Flowcytometry method (reference value: 1.29%); format: functional
SGC-7901 [15] = assay: Induction of apoptosis in human SGC-7901 cells assessed as viable cells at 1.25 uM measure after 24 hrs by Annexin-PI staining based Flowcytometry method (reference value: 94.9%); format: functional; settings: read-out: Activity
SGC-7901 [16] = assay: Induction of apoptosis in human SGC-7901 cells assessed as early apoptotic cells at 1.25 uM measure after 24 hrs by Annexin-PI staining based Flowcytometry method (reference value: 2.68%); format: functional
SGC-7901 [17] = assay: Induction of apoptosis in human SGC-7901 cells assessed as viable cells at 2.5 uM measure after 24 hrs by Annexin-PI staining based Flowcytometry method (reference value: 94.9%); format: functional; settings: read-out: Activity
SGC-7901 [18] = assay: Induction of apoptosis in human SGC-7901 cells assessed as late apoptotic cells at 2.5 uM measure after 24 hrs by Annexin-PI staining based Flowcytometry method (reference value: 1.29%); format: functional
SGC-7901 [19] = assay: Induction of apoptosis in human SGC-7901 cells assessed as viable cells at 5 uM measure after 24 hrs by Annexin-PI staining based Flowcytometry method (reference value: 94.9%); format: functional; settings: read-out: Activity
SGC-7901 [20] = assay: Induction of apoptosis in human SGC-7901 cells assessed as late apoptotic cells at 5 uM measure after 24 hrs by Annexin-PI staining based Flowcytometry method (reference value: 1.29%); format: functional
SGC-7901 [21] = assay: Induction of apoptosis in human SGC-7901 cells assessed as early apoptotic cells at 10 uM measure after 24 hrs by Annexin-PI staining based Flowcytometry method (reference value: 2.68%); format: functional
SGC-7901 [22] = assay: Induction of apoptosis in human SGC-7901 cells assessed as late apoptotic cells at 10 uM measure after 24 hrs by Annexin-PI staining based Flowcytometry method (reference value: 1.29%); format: functional
SGC-7901 [23] = assay: Induction of apoptosis in human SGC-7901 cells assessed as necrotic cells at 10 uM measure after 24 hrs by Annexin-PI staining based Flowcytometry method (reference value: 1.16%); format: functional
MGC-803 [24] = assay: Induction of apoptosis in human MGC-803 cells assessed as accumulation of cleaved caspase 3 protein at 0.625 to 10 uM measured after 24 hrs by western blot assay; format: functional, cell-based; settings: dose 0.625-10 µM
MGC-803 [25] = assay: Induction of apoptosis in human MGC-803 cells assessed as accumulation of cleaved PARP protein at 0.625 to 10 uM measured after 24 hrs by western blot assay; format: functional, cell-based; settings: dose 0.625-10 µM
MGC-803 [26] = assay: Induction of mitochondrial membrane potential loss in human MGC-803 cells at 10 uM measured after 24 hrs by JC-1 staining based flow cytometry method (reference value: 0.344%); settings: Mitochondria
MGC-803 [27] = assay: Cytotoxicity against human MGC-803 cells assessed as inhibition of cell viability incubated for 1 hr with Z-LEHD-FMK followed by addition of compound; format: functional, cell-based
MGC-803 [28] = assay: Induction of apoptosis in human MGC-803 cells assessed as increase in ROS production at 5 uM measured after 24 hrs by DCHF-DA staining based Flowcytometry method; format: functional, cell-based
MGC-803 [29] = assay: Induction of apoptosis in human MGC-803 cells assessed as increase in ROS production at 10 uM measured after 24 hrs by DCHF-DA staining based Flowcytometry method; format: functional, cell-based
MGC-803 [30] = assay: Induction of apoptosis in human MGC-803 cells assessed as increase in ROS production preincubated for 1 hr with NAC followed by compound addition at 5 uM measured after 24 hrs by DCHF-DA staining based Flowcytometry method; format: functional, cell-based
MGC-803 [31] = assay: Induction of apoptosis in human MGC-803 cells assessed as increase in ROS production preincubated for 1 hr with NAC followed by compound addition at 2.5 uM measured after 24 hrs by DCHF-DA staining based Flowcytometry method; format: functional, cell-based
MGC-803 [32] = assay: Antiproliferative activity in human MGC-803 cells assessed as inhibition of cell viability preincubated with 3-methyladenine followed by compound addition measured after 24 hrs by SRB staining method; format: functional, cell-based
MGC-803 [33] = assay: Induction of apoptosis in human MGC-803 cells assessed as increase in accumulation of LC3B-2 measured after 24 hrs by western blot assay; format: functional, cell-based
MGC-803 [34] = assay: Induction of apoptosis in human MGC-803 cells assessed as increase in accumulation of cleaved PARP measured after 24 hrs by western blot assay; format: functional, cell-based
[35] = Selectivity index, ratio of GI50 for human MGC803 to GI50 for human GES-1 cells

Compound `Cc1cc(Nc2ccc(C(=O)/C=C/c3cccc(Br)n3)cc2)n2nc(SCc3nc4ccccc4[nH]3)nc2n1` has a GI50 (MGC-803 [1]) of 640 nM, a GI50 (SGC-7901 [2]) of 640 nM and a GI50 (MKN-45) of 640 nM. The GI50 (A549) was > 10000 nM, the Activity (MGC-803 [3]) was “Active” and the Activity (MGC-803 [4]) was “Active”. For the same compound, the inhibition (MGC-803 [5]) was “Active”, the inhibition (SGC-7901 [6]) was “Active” and the inhibition (SGC-7901 [7]) was “Active”. For the same compound, the Activity (MGC-803 [8]) was 4.92%, the Activity (MGC-803 [9]) was 1.72% and the Activity (MGC-803 [10]) was 1.95%. For the same compound, the Activity (MGC-803 [11]) was 9.48%, the Activity (MGC-803 [12]) was 8.84% and the viability at 0.625 µM (SGC-7901 [13]) was 94.2%. For the same compound, the Activity (SGC-7901 [14]) was 1.55%, the viability at 1.25 µM (SGC-7901 [15]) was 94.8% and the Activity (SGC-7901 [16]) was 1.59%. For the same compound, the viability at 2.5 µM (SGC-7901 [17]) was 88.3%, the Activity (SGC-7901 [18]) was 5.53% and the viability at 5 µM (SGC-7901 [19]) was 53%. For the same compound, the Activity (SGC-7901 [20]) was 29.8%, the Activity (SGC-7901 [21]) was 8.54% and the Activity (SGC-7901 [22]) was 62.8%. For the same compound, the Activity (SGC-7901 [23]) was 4.79%, the Activity (MGC-803 [24]) was “Active” and the Activity (MGC-803 [25]) was “Active”. The Activity (MGC-803 [26]) was 10.7%, the inhibition (MGC-803 [27]) was “inactive” and the Activity (MGC-803 [28]) was “Active”. For the same compound, the Activity (MGC-803 [29]) was “Active”, the Activity (MGC-803 [30]) was “inactive” and the Activity (MGC-803 [31]) was “inactive”. The inhibition (MGC-803 [32]) was “Active”, the Activity (MGC-803 [33]) was “Active” and the Activity (MGC-803 [34]) was “Active”. It also gave a RatioGI50 [35] of 6.9.

From ChEMBL document CHEMBL4706515, “Discovery of new [1,2,4] Triazolo[1,5-a]Pyrimidine derivatives that Kill gastric cancer cells via the mitochondria pathway” (Eur J Med Chem, 2020)
